This experiment has as its system Matricaria recutita, Diplotaxis tenuifolia, Agrostis spp., Poa annua, or Arabidopsis thaliana. Nature of the experiment: Plant phenotyping assay (herbicidal phenotypes, 96-well plates). Also: key: '+++' is highly active; '++' is moderately active; '+' is weakly active; '−' is inactive. It is filed as in vivo. To be noted: visual score of herbicidal phenotypes after seven days; 238, 475, 950, and 1900 g ai/ha (50-400 uM). The protocol: Seeds of Matricaria recutita, Diplotaxis tenuifolia, Agrostis spp., Poa annua, or Arabidopsis thaliana were sown into 96-well plates containing 200 μl of growth media [0.5× Murashige and Skoog (MS) basal media (Sigma-Aldrich), 2.5 mM 2-(N-morpholino) ethanesulfonic acid (MES—Sigma-Aldrich), 0.7 g/L Phytagar (Invitrogen); pH 5.7]. Three to five seeds were distributed per well. Plates were placed under fifteen hours of light at 23° C., 65% humidity in a controlled environment growth chamber. After approximately three days, test compounds and controls were mixed with acetone and emulsified with an equal volume of 3% methyl ester of rapeseed oil (Mero), and applied to plants at concentrations of 238, 475, 950, and 1900 g ai/ha (50-400 uM).
With `O=C1CCC(N2C(=O)c3cccc(OCCOCCOCCOc4cccc(C(=O)C5C(=O)CCCC5=O)c4Cl)c3C2=O)C(=O)N1` (stereo not shown) [Compound 1, 4-[2-[2-[2-[2-chloro-3-(2,6-dioxocyclohexanecarbonyl)phenoxy]ethoxy]ethoxy]-ethoxy]-2-(2,6-dioxo-3-piperidyl)isoindoline-1,3-dione], the “Plant Activity” value was “++”.

For the compound `O=C(COc1cccc2c1C(=O)N(C1CCC(=O)NC1=O)C2=O)NCCOCCOc1cccc(C(=O)C2C(=O)CCCC2=O)c1Cl` (stereo not shown) [Compound 1-A, N-(2-(2-(2-Chloro-3-(2,6-dioxocyclohexane-1-carbonyl)phenoxy)ethoxy)ethyl)-2-((2-(2,6-dioxopiperidin-3-yl)-1,3-dioxoisoindolin-4-yl)oxy)acetamide], the “Plant Activity” value was “+”.

Turning to `O=C1CCC(N2C(=O)c3ccc(N4CCN(CCOCCOCCOc5cccc(C(=O)C6C(=O)CCCC6=O)c5Cl)CC4)cc3C2=O)C(=O)N1` (stereo not shown) [Compound 2, 5-[4-[2-[2-[2-[2-chloro-3-(2,6-dioxocyclohexane-carbonyl)phenoxy]ethoxy]-ethoxy]ethyl]piperazin-1-yl]-2-(2,6-dioxo-3-piperidyl)isoindoline-1,3-dione], the “Plant Activity” value is recorded as “+”.

Consider `O=C1CCC(N2C(=O)c3ccc(N4CCN(CCOCCOCCOCCN5CCC(Oc6cccc(C(=O)C7C(=O)CCCC7=O)c6Cl)CC5)CC4)cc3C2=O)C(=O)N1` (stereo not shown) [Compound 2-A, 5-[4-[2-[2-[2-[2-[4-[2-Chloro-3-(2,6-dioxocyclohexanecarbonyl)phenoxy]-1-piperidyl]ethoxy]ethoxy]ethoxy]ethyl]piperazin-1-yl]-2-(2,6-dioxo-3-piperidyl)isoindoline-1,3-dione], for which the “Plant Activity” value was “+”.

With `O=C1CCC(N2C(=O)c3ccc(N4CCN(CCCC5CCN(CCOCCOc6cccc(C(=O)C7C(=O)CCCC7=O)c6Cl)CC5)CC4)cc3C2=O)C(=O)N1` (stereo not shown) [Compound 2-B, 5-(4-(3-(1-(2-(2-(2-Chloro-3-(2,6-dioxocyclohexane-1-carbonyl)phenoxy)ethoxy)ethyl)piperidin-4-yl)propyl)piperazin-1-yl)-2-(2,6-dioxopiperidin-3-yl)isoindoline-1,3-dione], the “Plant Activity” value is listed as “+”.

Regarding `CS(=O)(=O)c1ccc(C(=O)C2C(=O)CCCC2=O)c(Cl)c1OCCOCCOCCOc1ccc2c(c1)C(=O)N(C1CCC(=O)NC1=O)C2=O` (stereo not shown) [Compound 3, 5-[2-[2-[2-[2-chloro-3-(2,6-dioxocyclohexanecarbonyl)-6-methylsulfonyl-phenoxy]ethoxy]ethoxy]ethoxy]-2-(2,6-dioxo-3-piperidyl)isoindoline-1,3-dione], the “Plant Activity” value is listed as “++”.

As to `COc1cnc(OC)n2nc(NS(=O)(=O)c3c(OCCOc4ccc5c(c4)C(=O)N(C4CCC(=O)NC4=O)C5=O)cccc3C(F)(F)F)nc12` (stereo not shown) [Compound 4, N-(5,8-dimethoxy-[1,2,4]triazolo[1,5-c]pyrimidin-2-yl)-2-[2-[2-(2,6-dioxo-3-piperidyl)-1,3-dioxo-isoindolin-5-yl]oxyethoxy]-6-(trifluoromethyl)benzenesulfonamide], the “Plant Activity” value is “+”.

Take `COc1cnc(OC)n2nc(NS(=O)(=O)c3c(OCCOCCOCCOCCOCCOc4ccc5c(c4)C(=O)N(C4CCC(=O)NC4=O)C5=O)cccc3C(F)(F)F)nc12` (stereo not shown) [Compound 4-A, N-(5,8-Dimethoxy-[1,2,4]triazolo[1,5-c]pyrimidin-2-yl)-2-((14-((2-(2,6-dioxopiperidin-3-yl)-1,3-dioxoisoindolin-5-yl)oxy)-3,6,9,12-tetraoxatetradecyl)oxy)-6-(trifluoromethyl)benzenesulfonamide]: the “Plant Activity” value is recorded as “+++”.

As for `COc1cnc(OC)n2nc(NS(=O)(=O)c3c(OCCOCCOCCOc4ccc5c(c4)C(=O)N(C4CCC(=O)NC4=O)C5=O)cccc3C(F)(F)F)nc12` (stereo not shown) [Compound 4-C, N-(5,8-Dimethoxy-[1,2,4]triazolo[1,5-c]pyrimidin-2-yl)-2-(2-(2-(2-((2-(2,6-dioxopiperidin-3-yl)-1,3-dioxoisoindolin-5-yl)oxy)ethoxy)ethoxy)ethoxy)-6-(trifluoromethyl)benzenesulfonamide], the “Plant Activity” value was “+++”.

Consider `COc1cnc(OC)n2nc(NS(=O)(=O)c3c(OCCOCCOCCOCCOc4ccc5c(c4)C(=O)N(C4CCC(=O)NC4=O)C5=O)cccc3C(F)(F)F)nc12` (stereo not shown) [Compound 4-D, N-(5,8-Dimethoxy-[1,2,4]triazolo[1,5-c]pyrimidin-2-yl)-2-(2-(2-(2-(2-((2-(2,6-dioxopiperidin-3-yl)-1,3-dioxoisoindolin-5-yl)oxy)ethoxy)ethoxy)ethoxy)ethoxy)-6-(trifluoromethyl)benzenesulfonamide], for which the “Plant Activity” value was “+++”.

In the case of `COc1cnc(OC)n2nc(NS(=O)(=O)c3c(OCCOCCOCCOCCOCCOCCOc4cccc5c4C(=O)N(C4CCC(=O)NC4=O)C5=O)cccc3C(F)(F)F)nc12` (stereo not shown) [Compound 4-E, N-(5,8-Dimethoxy-[1,2,4]triazolo[1,5-c]pyrimidin-2-yl)-2-((17-((2-(2,6-dioxopiperidin-3-yl)-1,3-dioxoisoindolin-4-yl)oxy)-3,6,9,12,15-pentaoxaheptadecyl)oxy)-6-(trifluoromethyl)benzenesulfonamide], the “Plant Activity” value is recorded as “++”.

In the case of `COc1cnc(OC)n2nc(NS(=O)(=O)c3c(OCCOCCOCCOCCOCCNc4cccc5c4C(=O)N(C4CCC(=O)NC4=O)C5=O)cccc3C(F)(F)F)nc12` (stereo not shown) [Compound 4-F, N-(5,8-Dimethoxy-[1,2,4]triazolo[1,5-c]pyrimidin-2-yl)-2-((14-((2-(2,6-dioxopiperidin-3-yl)-1,3-dioxoisoindolin-4-yl)amino)-3,6,9,12-tetraoxatetradecyl)oxy)-6-(trifluoromethyl)benzenesulfonamide], the “Plant Activity” value is listed as “+++”.

In the case of `COc1cnc(OC)n2nc(NS(=O)(=O)c3c(OCCOCCOCCOCCNC(=O)COc4cccc5c4C(=O)N(C4CCC(=O)NC4=O)C5=O)cccc3C(F)(F)F)nc12` (stereo not shown) [Compound 4-G, N-(2-(2-(2-(2-(2-(N-(5,8-Dimethoxy-[1,2,4]triazolo[1,5-c]pyrimidin-2-yl)sulfamoyl)-3-(trifluoromethyl)phenoxy)ethoxy)ethoxy)ethoxy)ethyl)-2-((2-(2,6-dioxopiperidin-3-yl)-1,3-dioxoisoindolin-4-yl)oxy)acetamide], the “Plant Activity” value is on record as “++”.

`COc1cnc(OC)n2nc(NS(=O)(=O)c3c(OCCOCCOCCOCCOCCNC(=O)COc4cccc5c4C(=O)N(C4CCC(=O)NC4=O)C5=O)cccc3C(F)(F)F)nc12` (stereo not shown) [Compound 4-H, N-(14-(2-(N-(5,8-Dimethoxy-[1,2,4]triazolo[1,5-c]pyrimidin-2-yl)sulfamoyl)-3-(trifluoromethyl)phenoxy)-3,6,9,12-tetraoxatetradecyl)-2-((2-(2,6-dioxopiperidin-3-yl)-1,3-dioxoisoindolin-4-yl)oxy)acetamide]: the “Plant Activity” value is “+++”.

On to `COc1cnc(OC)n2nc(NS(=O)(=O)c3c(OC4CCN(CCOCCOCCN5CCN(c6ccc7c(c6)C(=O)N(C6CCC(=O)NC6=O)C7=O)CC5)CC4)cccc3C(F)(F)F)nc12` (stereo not shown) [Compound 4-I, N-(5,8-Dimethoxy-[1,2,4]triazolo[1,5-c]pyrimidin-2-yl)-2-((1-(2-(2-(2-(4-(2-(2,6-dioxopiperidin-3-yl)-1,3-dioxoisoindolin-5-yl)piperazin-1-yl)ethoxy)ethoxy)ethyl)piperidin-4-yl)oxy)-6-(trifluoromethyl)benzenesulfonamide], for which the “Plant Activity” value is given as “+”.

Turning to `COc1cnc(OC)n2nc(NS(=O)(=O)c3c(OCCOCCOCCN4CCC(CCCN5CCN(c6ccc7c(c6)C(=O)N(C6CCC(=O)NC6=O)C7=O)CC5)CC4)cccc3C(F)(F)F)nc12` (stereo not shown) [Compound 4-J, N-(5,8-Dimethoxy-[1,2,4]triazolo[1,5-c]pyrimidin-2-yl)-2-(2-(2-(2-(4-(3-(4-(2-(2,6-dioxopiperidin-3-yl)-1,3-dioxoisoindolin-5-yl)piperazin-1-yl)propyl)piperidin-1-yl)ethoxy)ethoxy)ethoxy)-6-(trifluoromethyl)benzenesulfonamide], the “Plant Activity” value was “−”.

On to `COc1cnc(OC)n2nc(NS(=O)(=O)c3c(OCCOCCN4CCC(CCCN5CCN(c6ccc7c(c6)C(=O)N(C6CCC(=O)NC6=O)C7=O)CC5)CC4)cccc3C(F)(F)F)nc12` (stereo not shown) [Compound 4-K, N-(5,8-Dimethoxy-[1,2,4]triazolo[1,5-c]pyrimidin-2-yl)-2-(2-(2-(4-(3-(4-(2-(2,6-dioxopiperidin-3-yl)-1,3-dioxoisoindolin-5-yl)piperazin-1-yl)propyl)piperidin-1-yl)ethoxy)ethoxy)-6-(trifluoromethyl)benzenesulfonamide], for which the “Plant Activity” value is recorded as “+”.

For `COc1cnc(OC)n2nc(NS(=O)(=O)c3c(OCCN4CCC(CCCN5CCN(c6ccc7c(c6)C(=O)N(C6CCC(=O)NC6=O)C7=O)CC5)CC4)cccc3C(F)(F)F)nc12` (stereo not shown) [Compound 4-L, N-(5,8-Dimethoxy-[1,2,4]triazolo[1,5-c]pyrimidin-2-yl)-2-(2-(4-(3-(4-(2-(2,6-dioxopiperidin-3-yl)-1,3-dioxoisoindolin-5-yl)piperazin-1-yl)propyl)piperidin-1-yl)ethoxy)-6-(trifluoromethyl)benzenesulfonamide], the “Plant Activity” value is “−”.

Turning to `COc1cnc(OC)n2nc(NS(=O)(=O)c3c(OCCCC4CCN(CCOCCOc5ccc6c(c5)C(=O)N(C5CCC(=O)NC5=O)C6=O)CC4)cccc3C(F)(F)F)nc12` (stereo not shown) [Compound 4-M, N-(5,8-Dimethoxy-[1,2,4]triazolo[1,5-c]pyrimidin-2-yl)-2-(3-(1-(2-(2-((2-(2,6-dioxopiperidin-3-yl)-1,3-dioxoisoindolin-5-yl)oxy)ethoxy)ethyl)piperidin-4-yl)propoxy)-6-(trifluoromethyl)benzenesulfonamide], the “Plant Activity” value was “+”.

Source of the values: patent US20240365736A1, “COMPOSITIONS AND METHODS FOR TARGETED DEGRADATION OF PROTEINS IN A PLANT CELL” (Oerth Bio LLC, priority 2021, published 2024).
